How the values were obtained:
[1] = biological target: T1, Kv4.3/KChIP1 (Rattus norvegicus, UniProt Q62897); test: Fatty acid modulation of Kv4.3/KChIP1 current in Xenopus oocytes; assay type: cell-based; conditions: for block of Kv4.3 peak amplitude: Kv4.3/KChIP1, 10 μM fatty acid, vs no-fatty acid control; for effect on Kv4.3 inactivation time constant: Kv4.3 co-expressed with KChIP1, 10 μM fatty acid
T1 sequence (Q62897 1-655): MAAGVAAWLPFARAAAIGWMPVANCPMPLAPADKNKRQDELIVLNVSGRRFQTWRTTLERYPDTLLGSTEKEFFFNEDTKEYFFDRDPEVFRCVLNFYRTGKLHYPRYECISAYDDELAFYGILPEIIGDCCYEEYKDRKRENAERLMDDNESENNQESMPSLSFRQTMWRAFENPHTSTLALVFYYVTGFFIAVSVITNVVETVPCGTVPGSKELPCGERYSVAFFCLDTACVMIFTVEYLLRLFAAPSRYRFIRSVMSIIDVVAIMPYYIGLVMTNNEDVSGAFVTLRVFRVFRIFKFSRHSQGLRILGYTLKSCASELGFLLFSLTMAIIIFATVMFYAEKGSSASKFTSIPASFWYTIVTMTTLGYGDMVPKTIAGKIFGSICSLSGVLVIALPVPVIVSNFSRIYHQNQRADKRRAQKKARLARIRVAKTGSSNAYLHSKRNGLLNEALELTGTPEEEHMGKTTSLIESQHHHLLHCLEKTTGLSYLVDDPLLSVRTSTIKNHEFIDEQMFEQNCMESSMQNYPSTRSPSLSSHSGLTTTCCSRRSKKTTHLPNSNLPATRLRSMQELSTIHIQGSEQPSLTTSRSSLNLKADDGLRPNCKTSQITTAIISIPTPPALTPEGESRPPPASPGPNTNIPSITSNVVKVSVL
T1 sequence (Q8R426 1-216 isoform Q8R426-2 partner): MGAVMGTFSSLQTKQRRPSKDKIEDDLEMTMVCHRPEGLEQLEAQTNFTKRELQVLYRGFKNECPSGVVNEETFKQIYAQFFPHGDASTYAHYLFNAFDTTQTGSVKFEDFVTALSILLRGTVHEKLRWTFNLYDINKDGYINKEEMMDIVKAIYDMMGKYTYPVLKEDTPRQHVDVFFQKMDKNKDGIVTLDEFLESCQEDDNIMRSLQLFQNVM
Method: (§1) Frogs underwent no more than two surgeries and surgeries were performed by well established techniques. Frogs were anesthetized with ice. Total cRNA (1-10 ng) was injected into stage IV Xenopus oocytes that were harvested the previous day. The Xenopus oocytes were incubated in ND96 containing (in mM) 96 NaCl, 2 KCl, 1.8 CaCl2, 1 MgCl2, 5 HEPES, pH 7.6, plus (Gentamycin 50 μg/ml) at 18° C. Xenopus oocytes were studied 3-7 days after injection. The two-electrode voltage-clamp recordings were performed in ND96 solution using a TURBO TEC 03 Clamp Amplifier (ALA Scientific Instruments, Westbury, N.Y.). Both electrodes were filled with 3 M KCl and had electrode resistances ranging from 0.2-1 MOhm. The current signals were filtered at 1000 Hz before transferred on a PC (Gateway, Calif.) using the PULSE software (HEKA, Germany). In this Example, the hypothesis that […] were the missing auxiliary subunits that accounted for the above kinetic discrepancy was investigated by expressing Kv4 alone or together with […] in both CHO cells and Xenopus oocytes, and measuring their inactivation time constants (using art known techniques as described in, for example, An et al. (2000) Nature 403:553-6; Keros, S. and […]. Neuroscience 17: 3476-87; and Villarroel, A. and […]. Neuroscience 16:2522-32). The effects of different concentrations of arachidonic acid on Kv4/KChIP current was studied in Xenopus oocytes. Because the physiological concentrations of arachidonic acid are often under 10 μM (Needleman, et al., 1986 Annu Rev Biochem 55:69-102; Anderson and Welsh, 1990, Proc Natl Acad Sci USA 87:7334-8; Meves, 1994, Prog Neurobiol 43:175-86), arachidonic acid was tested in the 1-10 μM range. […] Further, the slope of amplitude reduction as a function of increasing concentrations was very similar with or without the presence of […]. […] Villarroel and Schwarz, (1996) J.

[2] = test system: Kv4.3; test: Fatty acid modulation of Kv4.3 current (Kv4.3 alone) in Xenopus oocytes; assay type: cell-based, rat; conditions: Kv4.3 alone, 10 μM fatty acid, vs no-fatty acid control
Method: as §1

| SMILES | block of Kv4.3 peak amplitude [1] | effect on Kv4.3 inactivation time constant [1] | block of Kv4.3 peak amplitude [2] |
| --- | --- | --- | --- |
| CCCCC/C=C/C/C=C/CCCCCCCC(=O)O [linolelaidic acid] | small, statistically significant block | did not affect the Kv4.3 inactivation time constant | All values except that of linolelaidic acid/Kv4.3 alone were statistically significant |
| CCCCC/C=C\C/C=C\C/C=C\CCCCC(=O)O [γ-linolenic acid] | inhibited significantly | reduced Kv4.3 inactivation time constant | inhibited significantly |
| CCCCCCCCC#CCC#CCC#CCCCC(=O)O [ETI, 5,8,11-eicosatriynoic acid] | inhibited significantly | reduced Kv4.3 inactivation time constant | inhibited significantly |
| CCCCCC#CCC#CCC#CCC#CCCCC(=O)O [ETYA, 5,8,11,14-eicosatetraynoic acid] | inhibited significantly | reduced Kv4.3 inactivation time constant | inhibited significantly |

— patent publication US7556938B1, “Nucleic acids encoding potassium channel interactors” (Millennium Pharmaceuticals, Inc., priority 1998, dated 2009)
